Measured values published in PMC7719495 (BioMed Research International, 2020).
Values belong to the compound of their own block, whether it stands above or below them.

Tests used:
[1] = tested on: mice brain capillary endothelial cells (BCECs); experiment: AMPB uptake by BCECs, HPLC; format: cell-based; details: 30, 60, 120, 180 min, compared with AMPB group
Method: The mice brain capillary endothelial cells (BCECs, cat. no. BNCC35187) were purchased from Beijing Beina Chuanglian Biotechnology Research Institute (Beijing, China). BCECs were resuscitated in a constant temperature water bath at 37°C and then inoculated in a petri dish. The cells were cultured with the 1640 medium containing 10% FBS in a 5% CO2 cell incubator at 37°C. The culture medium was changed every other day, and the cells were digested with 0.25% trypsin when they converged and proliferated to form a full layer at the bottom of the dish. 1 mL cell suspensions were seeded in 12-well plates at a density of 1 × 10^5 cells/mL per well. The drug was administered after the cells being completely adherent to the wall. 2.16 μM AMBP solution was prepared with the 1640 medium and then was used to prepare POS solution at concentrations of 2.85 μM, 5.71 μM, and 11.42 μM, 5 μM zosuquidar, 5 μM Ko143, 1 mM elacridar, and 40 g/L albumin solution, respectively.
The cells were randomly divided into the following 8 groups: 2.16 μM AMBP, 2.16 μM AMBP+POS (2.85 μM, 5.71 μM, and 11.42 μM), 2.16 μM AMBP+5 μM zosuquidar, 2.16 μM AMBP+5 μM Ko143, 2.16 μM AMBP+1 mM elacridar, and 2.16 μM AMBP+40 g/L albumin. Three wells were set at each time point in each group and cultured at 37°C. Cell samples were collected at 30 min, 60 min, 120 min, and 180 min after drug administration, respectively. BCECs were eluted with Hanks' balanced salt solution for 3 times and then incubated with 1% Triton X-100 (200 μL/per well) at 4°C for 12 h to lyse the cells.

[2] = HPLC analysis of the content of AMPB in mice plasma and brain tissue; format: in vivo, KM mice; details: compared with AMPB group; AMPB 3 mg/kg iv q.d.; POS 90 mg/kg gavage, zosuquidar 20 mg/kg, Ko143 10 mg/kg, elacridar 2.5 mg/kg iv, b.i.d. 4 days; 4 h after last administration
Method: POS, zosuquidar, Ko143, and elacridar were administered for 4 consecutive days (b.i.d., 9 a.m. and 9 p.m).
4 h after the last administration, the mouse eyeball was taken for blood sample acquisition, in a commercial 1.5 mL centrifuge tube containing the anticoagulant EDTA, with sterilized ophthalmic bending forceps. Samples were centrifuged at 3000 rpm for 10 min. And the bottom plasma was gently extracted and separated with micropipeter. Then, plasma proteins were precipitated by adding 300 μL methanol to 100 μL plasma, followed by vortex for 10 s and let it stand for 5 min. After that, the samples were centrifuged at 4°C, 13000 rpm, for 10 min. Finally, the plasma test solution was fulfilled by filtering it through the 0.22 μm microporous membrane.
After the completion of blood, the mice brain was quickly removed. Moderate brain tissue samples were mixed with physiological saline for homogenate preparation. And proteins were precipitated by adding 300 μL methanol to 100 μL homogenate, followed by vortex for 10 s, and let it stand for 5 min, and then centrifuged at 4°C, 13000 rpm, for 10 min. Finally, the brain test solution was fulfilled by filtering it through the 0.22 μm microporous membrane. […] The analytical column was a Diamonsil (2) C18 column (250 mm ×4.6 mm, 5 μm) maintained at 30°C. The mobile phase consisted of 10 mM ammonium acetate aqueous solution (PH4) and acetonitrile, with the flow rate of 1.0 mL/min and the injection volume of 50 μL.

[3] = tested on: plasma protein; experiment: Balanced (equilibrium) dialysis of free AMPB in in vitro plasma; format: in vitro ADME, mouse; details: 37°C, 6 h
Method: (§1) The equilibrium dialysis experiments were performed by the Thermo Fisher Scientific rapid equilibrium dialysis (RED) device. […] The prepared sample solutions were added into the holes of RED plate, respectively, with a 300 μL sample loading. In the corresponding buffer holes, 550 μL, 1% Triton X-100 solution was added. After the sample loading was completed, the sample was put into a 37°C constant temperature oscillator, and the dialysis was balanced at 100 rpm for 6 h. […] And then, the protein or drug-protein complexes with a molecular weight ≥ […] were retained by adding 1 mL of drug-containing plasma mixture into the Centrifree® overfiltration unit and centrifuging it at 13000 rpm and 4°C for 20 min.

[4] = tested on: plasma protein; experiment: Ultrafiltration analysis of free AMPB in in vitro plasma; format: in vitro ADME; details: 37°C, 2 h, p < 0.0001 vs AMPB group
Method: as §1

[5] = tested on: Cryptococcus neoformans; experiment: H&E staining of brain pathology in mice with cryptococcal meningitis; format: in vivo; details: AMPB 3 mg/kg, POS 180 mg/kg, 14 days, compared with model group
Method: Except the control group, the mice in the other four groups were all injected with the lateral ventricular cryptococcus suspension at the dose of 1 × 10^8 CFU/mL, 5 μL for each mouse [19]. And the control group was injected with the same volume of normal saline. […] After 5 days, mice in each group were administered with the corresponding drugs mentioned above, continuously for 14 days. […] The mice were then anesthetized with ether for 24 h after the last administration. Next, the brain tissue was promptly removed for H&E staining and colonization detection of Cryptococcus neoformans. The mouse brain tissue was fixed with 4% paraformaldehyde at 25°C for 24 h, followed by washing with running water for 0.5 h [20, 21]. The brain was then dehydrated with 75%, 85%, 95%, and anhydrous ethanol for 6 h, 10 h, 4 h, and 2 h, respectively. After permeabilization with xylene I for 20 min and xylene II for 15 min, the brain was embedded in paraffin for 3 h and then cut into 5 μm slices using a microtome (RM2235, Leica Biosystems, Wetzlar, Germany) and roasted at 60°C. After dewaxing with xylene, the slices were stained with hematoxylin and eosin. Random photographs of three fields were acquired using a CX22 light microscope at ×400 magnification (Olympus Corporation, Tokyo, Japan).

[6] = tested on: Cryptococcus neoformans; experiment: Counting of Cryptococcus neoformans colonies in the brain tissue; format: in vivo; details: cryptococcal meningitis mice; AMPB 3 mg/kg, POS 180 mg/kg, 14 days; p < 0.01 compared with model group
Method: Except the control group, the mice in the other four groups were all injected with the lateral ventricular cryptococcus suspension at the dose of 1 × 10^8 CFU/mL, 5 μL for each mouse [19]. And the control group was injected with the same volume of normal saline. […] After 5 days, mice in each group were administered with the corresponding drugs mentioned above, continuously for 14 days. And the time and frequency of administration are described above. The mice were then anesthetized with ether for 24 h after the last administration. Next, the brain tissue was promptly removed for H&E staining and colonization detection of Cryptococcus neoformans. The brain tissue was homogenized with normal saline at a ratio of 1 : 1 (g : v). And then, 100 μL homogenate suspension was gradient diluted to concentrations of 1, 0.1, 0.01, and 0.001 g/mL. At each concentration, 10 μL of brain tissue suspension was uniformly applied to yeast extract peptone dextrose medium and cultured in a 30°C incubator for 48 h [22]. Then, the colony count of cryptococcus neoformans was performed.

[7] = tested on: plasma protein; parameters: method as in earlier work; details: cited from earlier work
[8] = 5 μM zosuquidar, 5 μM Ko143 or 1 mM elacridar + 2.16 μM AMPB

Compound: COc1cc2c(cc1OC)CN(CCc1ccc(NC(=O)c3cccc4c(=O)c5cccc(OC)c5[nH]c34)cc1)CC2 [elacridar]
effect on AMPB uptake by BCECs [1, 8]: no significant effect

Compound: O[C@@H](COc1cccc2ncccc12)CN1CCN([C@@H]2c3ccccc3[C@@H]3[C@H](c4ccccc42)C3(F)F)CC1 [zosuquidar]
effect on AMPB uptake by BCECs [1, 8]: no significant effect

Compound: COc1ccc2c3c([nH]c2c1)[C@H](CC(C)C)N1C(=O)[C@H](CCC(=O)OC(C)(C)C)NC(=O)[C@@H]1C3 [Ko143]
AMPB brain tissue/plasma drug ratio [2]: no effect | brain tissue concentration of AMPB [2]: no effect | plasma drug concentration of AMPB [2]: no effect | effect on AMPB uptake by BCECs [1, 8]: no significant effect

effect on plasma free AMPB (balanced dialysis) ([3]; POS 4 μg/mL + AMPB 0.5 μg/mL in mouse plasma, p < 0.05 vs AMPB group): prominently elevate | effect on plasma free AMPB (balanced dialysis) ([3]; POS 8 μg/mL + AMPB 0.5 μg/mL in mouse plasma, p < 0.01 vs AMPB group): prominently elevate | effect on plasma concentration of free AMPB (ultrafiltration) ([4]; POS 4 μg/mL + AMPB 2.0 μg/mL in plasma): potentially increase | effect on plasma concentration of free AMPB (ultrafiltration) ([4]; POS 8 μg/mL + AMPB 2.0 μg/mL in plasma): potentially increase
Compound: CC[C@@H]([C@H](C)O)n1ncn(-c2ccc(N3CCN(c4ccc(OC[C@@H]5CO[C@@](Cn6cncn6)(c6ccc(F)cc6F)C5)cc4)CC3)cc2)c1=O [POS, posaconazole]
effect on AMPB uptake by BCECs ([1]; POS 2.85, 5.71 and 11.42 μM + 2.16 μM AMPB): no significant effect | cortical pathological injuries (inflammatory cell infiltration, bleeding), H&E staining [5]: improve the above pathological injuries | number of cryptococcus neoformans in the brain (colony culture) [6]: evidently inhibit | plasma protein binding rate [7]: 98%

Compound: C[C@@H]1[C@H](O)[C@@H](C)/C=C/C=C/C=C/C=C/C=C/C=C/C=C/[C@H](O[C@@H]2O[C@H](C)[C@@H](O)[C@H](N)[C@@H]2O)C[C@@H]2O[C@](O)(C[C@@H](O)C[C@@H](O)[C@H](O)CC[C@@H](O)C[C@@H](O)CC(=O)O[C@H]1C)C[C@H](O)[C@H]2C(=O)O [AMPB, amphotericin B]
plasma protein binding rate [7]: 90%
